Experimental data: the NIST ThermoML archive (doi:10.1021/je0499364)

Tests used:
[1] = Crystal
[2] = Molar enthalpy of transition or fusion; details: Crystal
[3] = molar heat capacity at constant pressure; details: 101.33 kPa

CCCCCCCCCC(=O)OC [methyl decanoate]
Details	Molar enthalpy of transition or fusion [kcal/mol]	Triple point temperature [K]
[1]	–	260.33
[2]	8.58	–

[3]
Details	molar heat capacity at constant pressure [J/K/mol]
5 K, Crystal	0.45
10 K, Crystal	3.7
20 K, Crystal	20.01
30 K, Crystal	37.87
40 K, Crystal	57.28
50 K, Crystal	75.63
60 K, Crystal	91.46
70 K, Crystal	105.95
80 K, Crystal	119.09
90 K, Crystal	131.08
100 K, Crystal	141.62
110 K, Crystal	151.65
120 K, Crystal	160.63
130 K, Crystal	169.23
140 K, Crystal	177.35
150 K, Crystal	185.25
160 K, Crystal	192.99
170 K, Crystal	200.77
180 K, Crystal	209.01
190 K, Crystal	217.44
200 K, Crystal	226.26
210 K, Crystal	234.91
220 K, Crystal	245.06
230 K, Crystal	256.05
240 K, Crystal	269.17
250 K, Crystal	300.63
270 K, Liquid	361.09
280 K, Liquid	368.72
290 K, Liquid	372.12
300 K, Liquid	376.14
310 K, Liquid	380.31
320 K, Liquid	385.19
330 K, Liquid	389.78
340 K, Liquid	394.95
350 K, Liquid	400.2

CCCCCCCCCCCC(=O)OC [methyl dodecanoate]
Details	Molar enthalpy of transition or fusion [kcal/mol]	Triple point temperature [K]
[1]	–	278.18
[2]	10.3	–

[3]
Details	molar heat capacity at constant pressure [J/K/mol]
5 K, Crystal	0.5
10 K, Crystal	4.31
20 K, Crystal	19.62
30 K, Crystal	40.21
40 K, Crystal	63.08
50 K, Crystal	85.07
60 K, Crystal	103.02
70 K, Crystal	119.02
80 K, Crystal	134.57
90 K, Crystal	148.81
100 K, Crystal	160.46
110 K, Crystal	171.83
120 K, Crystal	181.94
130 K, Crystal	191.82
140 K, Crystal	201.16
150 K, Crystal	209.76
160 K, Crystal	218.85
170 K, Crystal	227.97
180 K, Crystal	237.26
190 K, Crystal	246.66
200 K, Crystal	256.21
210 K, Crystal	265.84
220 K, Crystal	277.21
230 K, Crystal	288.57
240 K, Crystal	299.95
250 K, Crystal	315.69
260 K, Crystal	335.52
270 K, Crystal	392.98
280 K, Liquid	428
290 K, Liquid	432.76
300 K, Liquid	438.82
310 K, Liquid	443.32
320 K, Liquid	448.38
330 K, Liquid	453.83
340 K, Liquid	460.08
350 K, Liquid	467.86

CCCCCCCCCCCCCCCCCCCC(=O)OC [methyl eicosanoate]
Details	Molar enthalpy of transition or fusion [kcal/mol]	Triple point temperature [K]
[1]	–	319.48
[2]	18.83	–

[3]
Details	molar heat capacity at constant pressure [J/K/mol]
5 K, Crystal	0.75
10 K, Crystal	5.46
20 K, Crystal	28.85
30 K, Crystal	56.97
40 K, Crystal	89.89
50 K, Crystal	122.31
60 K, Crystal	149.98
70 K, Crystal	176.8
80 K, Crystal	199.8
90 K, Crystal	220.14
100 K, Crystal	235.76
110 K, Crystal	255.12
120 K, Crystal	271.01
130 K, Crystal	285.48
140 K, Crystal	299.45
150 K, Crystal	313.11
160 K, Crystal	326.52
170 K, Crystal	339.86
180 K, Crystal	353.31
190 K, Crystal	366.99
200 K, Crystal	381.11
210 K, Crystal	395.71
220 K, Crystal	411.05
230 K, Crystal	427.04
240 K, Crystal	443.77
250 K, Crystal	461.58
260 K, Crystal	480.5
270 K, Crystal	501.55
280 K, Crystal	525.09
290 K, Crystal	551.06
300 K, Crystal	585.33
330 K, Liquid	714.47
340 K, Liquid	722.28
350 K, Liquid	732.2

CCCCCCCCCCCCCCCCC(=O)OC [methyl heptadecanoate]
Details	Molar enthalpy of transition or fusion [kcal/mol]	Triple point temperature [K]
[1]	–	303.09
[2]	15.27	–

[3]
Details	molar heat capacity at constant pressure [J/K/mol]
5 K, Crystal	0.56
10 K, Crystal	4.36
20 K, Crystal	23.27
30 K, Crystal	48.82
40 K, Crystal	77.97
50 K, Crystal	106.88
60 K, Crystal	131.71
70 K, Crystal	154.68
80 K, Crystal	175.53
90 K, Crystal	192.9
100 K, Crystal	208.51
110 K, Crystal	224.09
120 K, Crystal	238.4
130 K, Crystal	252.69
140 K, Crystal	265.74
150 K, Crystal	275.72
160 K, Crystal	284.57
170 K, Crystal	302.09
180 K, Crystal	313.76
190 K, Crystal	326.38
200 K, Crystal	340.04
210 K, Crystal	355.66
220 K, Crystal	367.89
230 K, Crystal	382.88
240 K, Crystal	399.49
250 K, Crystal	418.37
260 K, Crystal	438.62
270 K, Crystal	456.93
280 K, Crystal	480.24
290 K, Crystal	517.76
310 K, Liquid	599.17
320 K, Liquid	605.44
330 K, Liquid	609.25
340 K, Liquid	615.4
350 K, Liquid	622.81

CCCCCCCCCCCCCCCC(=O)OC [methyl hexadecanoate]
Details	Triple point temperature [K]
[1], Adiabatic calorimetry	302.71

Details	Molar enthalpy of transition or fusion [kcal/mol]
[2]	14.35

[3]
Details	molar heat capacity at constant pressure [J/K/mol]
5 K, Crystal	0.66
10 K, Crystal	5.56
20 K, Crystal	23.7
30 K, Crystal	47.98
40 K, Crystal	75.87
50 K, Crystal	104.12
60 K, Crystal	129.69
70 K, Crystal	151.19
80 K, Crystal	167.13
90 K, Crystal	184.19
100 K, Crystal	198.32
110 K, Crystal	213.49
120 K, Crystal	226.5
130 K, Crystal	238.62
140 K, Crystal	250.27
150 K, Crystal	261.54
160 K, Crystal	272.73
170 K, Crystal	284.03
180 K, Crystal	295.27
190 K, Crystal	306.8
200 K, Crystal	318.65
210 K, Crystal	330.97
220 K, Crystal	343.93
230 K, Crystal	357.74
240 K, Crystal	372.37
250 K, Crystal	388.24
260 K, Crystal	405.39
270 K, Crystal	423.81
280 K, Crystal	448.6
290 K, Crystal	482.7
300 K, Crystal	740.48
310 K, Liquid	570.55
320 K, Liquid	576.47
330 K, Liquid	583.02
340 K, Liquid	590.14
350 K, Liquid	597.66

CCCCCCCCCCCCCCCCCCC(=O)OC [methyl nonadecanoate]
Details	Molar enthalpy of transition or fusion [kcal/mol]	Triple point temperature [K]
[1]	–	311.49
[2]	16.95	–

[3]
Details	molar heat capacity at constant pressure [J/K/mol]
5 K, Crystal	0.69
10 K, Crystal	5.1
20 K, Crystal	26.27
30 K, Crystal	55.13
40 K, Crystal	87.37
50 K, Crystal	117.8
60 K, Crystal	143.77
70 K, Crystal	168.98
80 K, Crystal	190.79
90 K, Crystal	210.18
100 K, Crystal	228.66
110 K, Crystal	244.31
120 K, Crystal	259.07
130 K, Crystal	273.22
140 K, Crystal	286.84
150 K, Crystal	300.17
160 K, Crystal	313.53
170 K, Crystal	327.31
180 K, Crystal	339.52
190 K, Crystal	353.2
200 K, Crystal	367.35
210 K, Crystal	380.94
220 K, Crystal	397.52
230 K, Crystal	413.93
240 K, Crystal	432.32
250 K, Crystal	450.65
260 K, Crystal	469.65
270 K, Crystal	491.94
280 K, Crystal	518.01
290 K, Crystal	549.43
300 K, Crystal	586.63
320 K, Liquid	691.61
330 K, Liquid	677.17
340 K, Liquid	684.76
350 K, Liquid	693.78

CCCCCCCCC(=O)OC [methyl nonanoate]
Details	Molar enthalpy of transition or fusion [kcal/mol]	Triple point temperature [K]
[1]	–	238.72
[2]	6.53	–

[3]
Details	molar heat capacity at constant pressure [J/K/mol]
5 K, Crystal	0.39
10 K, Crystal	2.96
20 K, Crystal	17.17
30 K, Crystal	34.66
40 K, Crystal	53.39
50 K, Crystal	71.31
60 K, Crystal	86.46
70 K, Crystal	100.55
80 K, Crystal	113.08
90 K, Crystal	123.98
100 K, Crystal	134.32
110 K, Crystal	143.79
120 K, Crystal	152.28
130 K, Crystal	160.47
140 K, Crystal	168.48
150 K, Crystal	175.96
160 K, Crystal	183.23
170 K, Crystal	190.85
180 K, Crystal	198.49
190 K, Crystal	206.56
200 K, Crystal	215.27
210 K, Crystal	224.62
220 K, Crystal	236.53
230 K, Crystal	265.31
240 K, Liquid	330.8
250 K, Liquid	330.84
260 K, Liquid	333.42
270 K, Liquid	335.9
280 K, Liquid	338.72
290 K, Liquid	342.82
300 K, Liquid	346.27
310 K, Liquid	350.79
320 K, Liquid	354.3
330 K, Liquid	359.1
340 K, Liquid	363.82
350 K, Liquid	368.16

CCCCCCCCCCCCCCCCCC(=O)OC [methyl octadecanoate]
Details	Molar enthalpy of transition or fusion [kcal/mol]	Triple point temperature [K]
[1]	–	311.84
[2]	15.86	–

[3]
Details	molar heat capacity at constant pressure [J/K/mol]
5 K, Crystal	0.82
10 K, Crystal	5.96
20 K, Crystal	26.2
30 K, Crystal	52.72
40 K, Crystal	82.6
50 K, Crystal	112.11
60 K, Crystal	137.8
70 K, Crystal	162.71
80 K, Crystal	182.89
90 K, Crystal	201.46
100 K, Crystal	217.35
110 K, Crystal	234.15
120 K, Crystal	248.17
130 K, Crystal	261.72
140 K, Crystal	274.54
150 K, Crystal	286.99
160 K, Crystal	299.33
170 K, Crystal	312.93
180 K, Crystal	327.18
190 K, Crystal	341.65
200 K, Crystal	354.7
210 K, Crystal	368.18
220 K, Crystal	382.77
230 K, Crystal	397.82
240 K, Crystal	413.11
250 K, Crystal	428.51
260 K, Crystal	446.92
270 K, Crystal	468.64
280 K, Crystal	497.34
290 K, Crystal	541.05
320 K, Liquid	639
330 K, Liquid	646.44
340 K, Liquid	655.14
350 K, Liquid	664.03

CCCCCCCC(=O)OC [methyl octanoate]
Details	Triple point temperature [K]
[1]	236.2

Details	Molar enthalpy of transition or fusion [kcal/mol]
[2], Adiabatic calorimetry	6.13

[3]
Details	molar heat capacity at constant pressure [J/K/mol]
5 K, Crystal	0.38
10 K, Crystal	3.03
20 K, Crystal	18.19
30 K, Crystal	33.71
40 K, Crystal	50.53
50 K, Crystal	66.36
60 K, Crystal	79.75
70 K, Crystal	92.33
80 K, Crystal	103.39
90 K, Crystal	113.4
100 K, Crystal	122.25
110 K, Crystal	131.1
120 K, Crystal	138.74
130 K, Crystal	146.18
140 K, Crystal	153.44
150 K, Crystal	160.31
160 K, Crystal	167.13
170 K, Crystal	174.18
180 K, Crystal	181.34
190 K, Crystal	188.84
200 K, Crystal	196.94
210 K, Crystal	205.99
220 K, Crystal	217.68
230 K, Crystal	242.75
240 K, Liquid	301.67
250 K, Liquid	301.39
260 K, Liquid	303.17
270 K, Liquid	305.83
280 K, Liquid	308.83
290 K, Liquid	312.81
300 K, Liquid	316.17
310 K, Liquid	320.13
320 K, Liquid	323.19
330 K, Liquid	327.93
340 K, Liquid	332.21
350 K, Liquid	336.19
